Laboratory results published in ChEMBL document CHEMBL3714766, “Tetrahydroisoquinoline compounds and their use as pyruvate dehydrogenase kinase inhibitors” (2015).

What follows are compounds tested against Pyruvate dehydrogenase kinase (Homo sapiens, UniProt Q15119+Q15120+Q16654+Q15118) (assay: Binding affinity to pyruvate dehydrogenase kinase (unknown origin) by VER-00160364 probe based fluorescence polarization assay).

Compound	IC50
O=C(c1ccc(O)cc1O)N1CCCc2cc(F)ccc21	100 nM
CC1CCc2cc(C(=O)N(C)CC(F)(F)F)ccc2N1C(=O)c1cc(Cl)c(O)cc1O (configuration not stated)	100 nM
CC1CCc2cc(C(=O)N(C)Cc3nc4ccccc4n3C)ccc2N1C(=O)c1ccc(O)cc1O (configuration not stated)	100 nM
CC1CCc2cc(C(=O)N(C)Cc3ccc(Cl)cc3)ccc2N1C(=O)c1ccc(O)cc1O (configuration not stated)	10 nM
COc1ccc(CN(C)C(=O)c2ccc3c(c2)CC[C@@H](C)N3C(=O)c2ccc(O)cc2O)cc1	10000 nM
Cc1cnc(-c2ccc3c(c2)CCC(C)N3C(=O)c2cc(Cl)c(O)cc2O)n1C (configuration not stated)	1000 nM
CN(C)C(=O)c1ccc2c(c1)CCCN2C(=O)c1ccc(O)cc1O	100 nM
CC1CCc2cc(C(=O)N3CCC3)ccc2N1C(=O)c1ccc(O)cc1O (configuration not stated)	100 nM
CN(C(=O)c1ccc2c(c1)CCCN2C(=O)c1ccc(O)cc1O)c1cccc(F)c1	100 nM
C[C@@H]1CCc2ccccc2N1C(=O)c1cc(Cl)c(O)cc1O	10000 nM
C[C@H]1CCc2cc(C(=O)N(C)Cc3cc4ccccc4[nH]3)ccc2N1C(=O)c1ccc(O)cc1O	100 nM
CC1CCc2cc(C(=O)N(C)Cc3ccc(Cl)cc3)ccc2N1C(=O)c1cc(Cl)c(O)cc1O (configuration not stated)	100 nM
C[C@H]1CCc2ccccc2N1C(=O)c1cc(F)c(O)cc1O	100 nM
CCc1cc(C(=O)N2c3ccc(F)cc3CCC2C)c(O)cc1O (configuration not stated)	10000 nM
C[C@H]1CCc2cc(C(=O)N(C)Cc3ccc4c(ccn4C)c3)ccc2N1C(=O)c1ccc(O)cc1O	100 nM
CN(Cc1nc2ccccc2[nH]1)C(=O)c1ccc2c(c1)CCCN2C(=O)c1ccc(O)cc1O	100 nM
Cc1nc(C)c(-c2ccc3c(c2)CCCN3C(=O)c2ccc(O)cc2O)s1	100 nM
O=C(c1ccc2c(c1)CCCN2C(=O)c1ccc(O)cc1O)N1CCC1	1000 nM
COc1ccc2c(c1)CCCN2C(=O)c1ccc(O)cc1O	100 nM
CC(C)c1ccc2c(c1)CCCN2C(=O)c1ccc(O)cc1O	100 nM
O=C(c1ccc(O)cc1O)N1CCCc2cc(OC(F)(F)F)ccc21	1000 nM
Cn1nccc1-c1ccc2c(c1)CCCN2C(=O)c1ccc(O)cc1O	100 nM
Cc1ccc2c(c1)CCCN2C(=O)c1ccc(O)cc1O	100 nM
CN(CCN)C(=O)c1ccc2c(c1)CCCN2C(=O)c1ccc(O)cc1O	1000 nM
C[C@H]1CCc2cc(C(=O)N(C)Cc3ccc[n+](C)c3)ccc2N1C(=O)c1ccc(O)cc1O	100 nM
COc1ccc(CN(C)C(=O)c2ccc3c(c2)CCC(C)N3C(=O)c2ccc(O)cc2O)cc1OC (configuration not stated)	100 nM
CCOC(=O)CN(C)C(=O)c1ccc2c(c1)CCCN2C(=O)c1ccc(O)cc1O	1000 nM

Compound	IC50
CC(c1cc2ccccc2o1)N(C)C(=O)c1ccc2c(c1)CCC(C)N2C(=O)c1ccc(O)cc1O (configuration not stated)	100 nM
Cn1ccnc1-c1ccc2c(c1)CCCN2C(=O)c1ccc(O)cc1O	1000 nM
COc1ccc(CN(C)C(=O)c2ccc3c(c2)CCC(C)N3C(=O)c2ccc(O)cc2O)cc1 (configuration not stated)	10 nM
O=C(c1ccc(O)cc1O)N1CCCc2cc(OCc3ccccc3)ccc21	10000 nM
COc1ccccc1CN(C)C(=O)c1ccc2c(c1)CCC(C)N2C(=O)c1ccc(O)cc1O (configuration not stated)	100 nM
CN(CCNC(=O)OC(C)(C)C)C(=O)c1ccc2c(c1)CCCN2C(=O)c1ccc(O)cc1O	1000 nM
CC1CCc2cc(C(=O)N(C)Cc3cc4ccccc4[nH]3)ccc2N1C(=O)c1ccc(O)cc1O (configuration not stated)	100 nM
Cc1cn(C)c(-c2ccc3c(c2)CCC(C)N3C(=O)c2cc(Cl)c(O)cc2O)n1 (configuration not stated)	1000 nM
C[C@H]1CCc2cc(C(=O)N(C)Cc3ccnc4ccccc34)ccc2N1C(=O)c1ccc(O)cc1O	10 nM
C[C@H]1CCc2cc(C(=O)N(C)Cc3ccc(Cl)cc3)ccc2N1C(=O)c1ccc(O)cc1O	100 nM
CN(CC(F)(F)F)C(=O)c1ccc2c(c1)CCCN2C(=O)c1ccc(O)cc1O	1000 nM
CC1CCc2cc(C(=O)N(C)Cc3ccc(Cl)c(Cl)c3)ccc2N1C(=O)c1ccc(O)cc1O (configuration not stated)	100 nM
C[C@H]1CCc2cc(C(=O)N3CCN(C(=O)OC(C)(C)C)CC3)ccc2N1C(=O)c1ccc(O)cc1O	1000 nM
CC1CCc2cc(C(=O)N(C)Cc3cnn(C)c3)ccc2N1C(=O)c1ccc(O)cc1O (configuration not stated)	100 nM
O=C(c1ccc2c(c1)CCCN2C(=O)c1ccc(O)cc1O)N1CCc2ccccc21	100 nM
CC1CCc2cc(C(=O)N(C)Cc3nc4ccccc4s3)ccc2N1C(=O)c1ccc(O)cc1O (configuration not stated)	100 nM
O=C(c1ccc2c(c1)CCCN2C(=O)c1ccc(O)cc1O)N1CCCCC1	100 nM
Cc1nc(C)c(-c2ccc3c(c2)CCC(C)N3C(=O)c2cc(Cl)c(O)cc2O)s1 (configuration not stated)	1000 nM
O=C(c1ccc(O)cc1O)N1CCCc2cc(Br)ccc21	1000 nM
C[C@H]1CCc2ccccc2N1C(=O)c1cc(Cl)c(O)cc1O	100 nM
CC1CCc2cc(C(=O)N(C)Cc3nc4ccccc4[nH]3)ccc2N1C(=O)c1ccc(O)cc1O (configuration not stated)	100 nM
CC1CCc2cc(C(=O)N3CCCCC3)ccc2N1C(=O)c1ccc(O)cc1O (configuration not stated)	100 nM
CN(Cc1ccccn1)C(=O)c1ccc2c(c1)CCCN2C(=O)c1ccc(O)cc1O	1000 nM
CC1CCc2cc(C(=O)N(C)Cc3cc4cc(F)ccc4[nH]3)ccc2N1C(=O)c1ccc(O)cc1O (configuration not stated)	100 nM
C[C@H]1CCc2cc(C(=O)N(C)Cc3cccc4c3ccc[n+]4C)ccc2N1C(=O)c1ccc(O)cc1O	100 nM
CN(CC(=O)O)C(=O)c1ccc2c(c1)CCCN2C(=O)c1ccc(O)cc1O	1000 nM

The remaining lines, values ahead:

IC50	Compound
100 nM	CC1CCc2cc(C(=O)N(C)c3cccc(F)c3)ccc2N1C(=O)c1ccc(O)cc1O (configuration not stated)
100 nM	CC1CCc2cc(-c3ncccc3C#N)ccc2N1C(=O)c1ccc(O)cc1O (configuration not stated)
10 nM	Cc1cnc(Cl)nc1-c1ccc2c(c1)CCC(C)N2C(=O)c1ccc(O)cc1O (configuration not stated)
100 nM	CC1CCc2cc(-c3ccnn3C)ccc2N1C(=O)c1ccc(O)cc1O (configuration not stated)
100 nM	C[C@H]1CCc2cc(C(=O)N(C)Cc3ccc(F)cc3)ccc2N1C(=O)c1ccc(O)cc1O
10 nM	CC1CCc2cc(C(=O)N(C)Cc3ccc(F)cc3)ccc2N1C(=O)c1ccc(O)cc1O (configuration not stated)
1000 nM	O=C(c1ccc(O)cc1O)N1CCCc2cc(-c3ncccc3C(F)(F)F)ccc21
1000 nM	N#Cc1cccnc1-c1ccc2c(c1)CCCN2C(=O)c1ccc(O)cc1O
100 nM	CC1CCc2cc(-c3ncccc3Cl)ccc2N1C(=O)c1ccc(O)cc1O (configuration not stated)
100 nM	C[C@H]1CCc2cc(C(=O)N(C)Cc3ccnc(Cl)c3)ccc2N1C(=O)c1ccc(O)cc1O
100 nM	CC1CCc2cc(C(=O)N(C)Cc3cccnc3)ccc2N1C(=O)c1ccc(O)cc1O (configuration not stated)
100 nM	C[C@H]1CCc2cc(-c3nc(Cl)nc4c3COCC4)ccc2N1C(=O)c1ccc(O)cc1O
100 nM	CC1CCc2cc(-c3ncccc3C(F)(F)F)ccc2N1C(=O)c1ccc(O)cc1O (configuration not stated)
100 nM	C[C@H]1CCc2cc(C(=O)N(C)CC(F)(F)F)ccc2N1C(=O)c1ccc(O)cc1O
1000 nM	Cc1nc(C)c(-c2ccc3c(c2)CC[C@H](C)N3C(=O)c2ccc(O)cc2O)s1
10000 nM	C[C@@H]1CCc2ccccc2N1C(=O)c1ccc(O)cc1O
100 nM	CC1CCc2cc(C(=O)N(C)CCc3ccccn3)ccc2N1C(=O)c1ccc(O)cc1O (configuration not stated)
1000 nM	O=C(c1ccc(O)cc1O)N1CCCc2cc(-c3ncccc3Cl)ccc21
100 nM	CC1CCc2cc(-c3nccn3C)ccc2N1C(=O)c1ccc(O)cc1O (configuration not stated)
1000 nM	CC1CCc2cc(-c3occc3C#N)ccc2N1C(=O)c1ccc(O)cc1O (configuration not stated)
10000 nM	C[C@H]1CCc2cc(C(=O)O)ccc2N1C(=O)c1ccc(O)cc1O
100 nM	Cc1nccnc1-c1ccc2c(c1)CCC(C)N2C(=O)c1ccc(O)cc1O (configuration not stated)

IC50	Compound
100 nM	Cc1ccnnc1-c1ccc2c(c1)CCC(C)N2C(=O)c1ccc(O)cc1O (configuration not stated)
100 nM	CC1CCc2cc(C(=O)N3Cc4ccccc4C3)ccc2N1C(=O)c1ccc(O)cc1O (configuration not stated)
1000 nM	CC1CCc2cc(-c3nccn3C)ccc2N1C(=O)c1cc(Cl)c(O)cc1O (configuration not stated)
1000 nM	CC1CCc2cc(-c3ncccc3C(F)(F)F)ccc2N1C(=O)c1cc(Cl)c(O)cc1O (configuration not stated)
10000 nM	Cc1cccnc1-c1ccc2c(c1)CC[C@@H](C)N2C(=O)c1ccc(O)cc1O
10 nM	Cc1nc(C)c(-c2ccc3c(c2)CCC(C)N3C(=O)c2ccc(O)cc2O)s1 (configuration not stated)
100 nM	C[C@H]1CCc2cc(-c3ncccc3Cl)ccc2N1C(=O)c1ccc(O)cc1O
1000 nM	Cc1cccnc1-c1ccc2c(c1)CCCN2C(=O)c1ccc(O)cc1O
100 nM	C[C@H]1CCc2cc(C(=O)N(C)C)ccc2N1C(=O)c1ccc(O)cc1O
10000 nM	Cc1cccnc1-c1ccc2c(c1)CCCN2C(=O)c1cc(C(F)(F)F)c(O)cc1O
100 nM	Cc1cccnc1-c1ccc2c(c1)CC[C@H](C)N2C(=O)c1ccc(O)cc1O
100 nM	Cc1ccnnc1-c1ccc2c(c1)CC[C@H](C)N2C(=O)c1ccc(O)cc1O
100 nM	Cc1cccnc1-c1ccc2c(c1)CCC(C)N2C(=O)c1ccc(O)cc1O (configuration not stated)
100 nM	C[C@H]1CCc2cc(-c3ncccc3C(F)(F)F)ccc2N1C(=O)c1ccc(O)cc1O
10000 nM	Cc1cnc(Cl)nc1-c1ccc2c(c1)CC[C@@H](C)N2C(=O)c1ccc(O)cc1O
1000 nM	CC1CCc2cc(-c3ncccc3Cl)ccc2N1C(=O)c1cc(Cl)c(O)cc1O (configuration not stated)
100 nM	CC1CCc2cc(C(=O)N(C)C)ccc2N1C(=O)c1ccc(O)cc1O (configuration not stated)
100 nM	C[C@H]1CCc2cc(-c3ncccc3C#N)ccc2N1C(=O)c1ccc(O)cc1O
10000 nM	C[C@@H]1CCc2cc(C(=O)N(C)C)ccc2N1C(=O)c1ccc(O)cc1O
100 nM	Cc1cccnc1-c1ccc2c(c1)CCC(C)N2C(=O)c1cc(Cl)c(O)cc1O (configuration not stated)
100 nM	Cc1cnc(NC(C)C)nc1-c1ccc2c(c1)CC[C@H](C)N2C(=O)c1ccc(O)cc1O
1000 nM	CC1CCc2cc(-c3ncccc3C#N)ccc2N1C(=O)c1cc(Cl)c(O)cc1O (configuration not stated)
